These results are taken from ChEMBL document CHEMBL1126369, “(E)-1-alkyl-[2-(1H-azol-2-yl)vinyl]pyridinium salts: theoretical analysis, synthesis and evaluation of their interaction with choline acetyltransferase” (Bioorg Med Chem Lett, 1992).

In test [1] the target is T1, Choline O-acetyltransferase (Gallus gallus, UniProt Q90YJ9).
T1 sequence (Q90YJ9 whole entry): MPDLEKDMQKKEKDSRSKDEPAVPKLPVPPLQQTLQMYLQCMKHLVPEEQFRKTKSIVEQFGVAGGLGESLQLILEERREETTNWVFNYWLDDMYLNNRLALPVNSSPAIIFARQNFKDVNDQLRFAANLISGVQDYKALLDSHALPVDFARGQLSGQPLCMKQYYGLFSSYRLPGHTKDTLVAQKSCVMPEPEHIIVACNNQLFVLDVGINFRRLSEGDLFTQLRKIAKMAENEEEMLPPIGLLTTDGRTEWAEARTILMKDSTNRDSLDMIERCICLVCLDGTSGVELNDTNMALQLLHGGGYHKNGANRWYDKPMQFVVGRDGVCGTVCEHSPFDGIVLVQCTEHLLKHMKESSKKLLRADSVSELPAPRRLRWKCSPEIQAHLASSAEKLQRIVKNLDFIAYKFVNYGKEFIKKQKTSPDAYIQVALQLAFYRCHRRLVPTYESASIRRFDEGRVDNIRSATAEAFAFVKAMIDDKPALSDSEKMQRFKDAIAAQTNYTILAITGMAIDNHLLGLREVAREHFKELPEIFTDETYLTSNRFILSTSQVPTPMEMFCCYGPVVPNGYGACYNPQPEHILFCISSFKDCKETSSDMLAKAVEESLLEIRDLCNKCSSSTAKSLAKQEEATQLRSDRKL
The test can be described thus: Compound was tested in vitro for inhibitory activity against chick optic lobe choline acetyltransferase (ChAT).

The target of test [2] is T1, Choline O-acetyltransferase. Description: Compound was tested in vitro for inhibitory activity against chick choline acetyltransferase (ChAT).
The target of test [3] is T2, Choline O-acetyltransferase (Gallus gallus) (UniProt Q90YJ9).
T2 sequence (whole entry): T1 sequence (Q90YJ9 whole entry)
Description: Inhibition of chick optic lobe choline acetyltransferase (ChAT) at 10e-4 M.

Test [4] addresses T3, Choline O-acetyltransferase (Rattus norvegicus, UniProt P32738).
T3 sequence (P32738 whole entry): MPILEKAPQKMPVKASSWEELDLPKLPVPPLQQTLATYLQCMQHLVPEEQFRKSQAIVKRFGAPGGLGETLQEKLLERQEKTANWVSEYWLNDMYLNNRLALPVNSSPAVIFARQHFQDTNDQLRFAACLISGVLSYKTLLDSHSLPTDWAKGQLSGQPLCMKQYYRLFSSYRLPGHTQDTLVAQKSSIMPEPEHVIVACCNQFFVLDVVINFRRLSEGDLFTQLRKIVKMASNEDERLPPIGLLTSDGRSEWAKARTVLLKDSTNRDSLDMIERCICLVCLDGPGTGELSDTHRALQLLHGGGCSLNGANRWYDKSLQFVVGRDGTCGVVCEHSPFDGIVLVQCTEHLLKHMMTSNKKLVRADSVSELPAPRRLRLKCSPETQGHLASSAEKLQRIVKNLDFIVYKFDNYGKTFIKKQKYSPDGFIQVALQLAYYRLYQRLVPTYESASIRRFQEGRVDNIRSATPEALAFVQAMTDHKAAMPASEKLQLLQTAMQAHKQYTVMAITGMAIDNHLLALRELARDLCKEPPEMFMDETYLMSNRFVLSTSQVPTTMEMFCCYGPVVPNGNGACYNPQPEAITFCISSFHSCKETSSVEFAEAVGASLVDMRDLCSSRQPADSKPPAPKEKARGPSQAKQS
The test can be described thus: Compound was tested in vitro for inhibitory activity against rat choline acetyltransferase (ChAT).

As to `CCC[n+]1ccc(/C=C/c2cccc3ccccc23)cc1`, the IC50 (in general, the concentration that gives 50% inhibition) in test [1] was found to be 29 µM; in test [2], 58 µM; in test [4], 30 µM. Besides, in test [3], the inhibition (as a rule, the relative decrease from the control value, in per cent) was 80%. On to `CCCC[n+]1ccc(/C=C/c2nc3cc(C)c(C)cc3[nH]2)cc1`, for which, in test [3], the inhibition is < 1%. Consider `CCCCCCCCCC[n+]1ccc(/C=C/c2nc3cc(C)c(C)cc3[nH]2)cc1`, for which the inhibition in test [3] is < 1%. The same measure, in the same setting: the result for `Cc1cc2nc(/C=C/c3cccnc3)[nH]c2cc1C` reads < 1%. Regarding `NC(=O)C[n+]1ccc(/C=C/c2cccc3ccccc23)cc1`, in test [1], the IC50 was 37 µM. The inhibition in test [3] was found to be 78%. Regarding `CCCC[n+]1ccc(/C=C/c2ncc[nH]2)cc1`, the inhibition in test [3] was < 1%. Still for that read-out and setting: the figure for `C(=C\c1cccc2ccccc12)/c1ccncc1` is 5%. The compound `C[n+]1ccc(/C=C/c2cccc3ccccc23)cc1` had an IC50 in test [1] of 40 µM. The compound also came in with an inhibition in test [3] of 73%.

As for `Cc1cc2nc(/C=C/c3ccncc3)[nH]c2cc1C`, the inhibition in test [3] is < 1%. As to `Cc1cc2nc(/C=C/c3ccc[n+](C)c3)[nH]c2cc1C`, the inhibition in test [3] is < 1%.

As for `C[n+]1ccc(/C=N/c2nc3ccccc3[nH]2)cc1`, the inhibition in test [3] was < 1%. Same read-out and setting: the result for `CCCC[n+]1cccc(/C=C/c2nc3cc(C)c(C)cc3[nH]2)c1` reads < 1%; that for `Cc1cc2nc(/C=C/c3cc[n+](C)cc3)[nH]c2cc1C`, < 1%.
